What was measured:
[1] = tested on: P. aeruginosa; test: P. aeruginosa growth inhibition; type: cell-based
Protocol: (§1) Assays for inhibition of other bacterial strains were carried out according to standard uniform procedures.

[2] = tested on: S. aureus; test: S. aureus growth inhibition; type: cell-based
Protocol: as §1

[3] = tested on: B. subtilis; test: B. subtilis bacterial inhibition, zone of inhibition (paper disc on agar); type: cell-based, B. subtilis UC 564; conditions: 1/2 inch paper discs, 0.08 ml per disc
Protocol: The assay for B. subtilis bacterial inhibition was obtained on plates with B. subtilis UC 564 spores in agar with the following composition per liter:
After autoclaving, 10 ml. of 20 percent glucose was added. The seeding rate was approximately 10^9 spores per liter. Test solutions were applied to 1/2 inch paper discs (Schleicher & Schuell 740E) with 0.08 ml. per disc. Zones of inhibition were recorded.

[4] = target: E.Coli RNA Polymerase (Escherichia coli, UniProt P0A8V2); test: Bacterial RNA polymerase inhibition; type: biochemical; set-up: concentration or dose not given beside the values; conditions: pH 7.9, 30°C, 15 min
Source text: (§2) Tables II, III and IV below respectively set forth activities of representative atropisomeric forms of ansa ring compounds of the invention relative to the "normal" isomeric forms in the following assays: (A) reverse transcriptase (RNA-directed DNA polymerase); (B) bacterial RNA polymerase; (C) B. subtilis bacterial inhibition; (D) S. lutea bacterial inhibition; and, inhibition of numerous other bacterial strains.
The assay for bacterial RNA polymerase followed the procedure of Reusser (J. Bacteriol, 105, 580 (1971)). Assay mixtures were prepared containing in a total volume of 0.25 ml: Tris-hydrochloride buffer, pH 7.9, 5 μmoles; MgCl2, 1 μmole; mercaptoethanol, 3 μmoles; MnCl2, 0.25 μmole; quanosine triphosphate, cytidine triphosphate, uridine triphosphate, 0.1 μmole each; adenosine triphosphate 8-^14 C, 0.1 μmole containing 0.05 μCi; dAT, 0.2 units; polymerase, ~35 μg. The reaction mixtures were incubated at 30°C for 15 min.

[5] = tested on: S. lutea; test: S. lutea bacterial inhibition; type: cell-based; conditions: brain heart broth, 37°, 16-18 hours
Protocol: The assay for S. lutea inhibition was as follows. Water-soluble preparations were dissolved in brain heart infusion broth (Difco) to 1 mg./ml. Water-insoluble preparations were dissolved (or suspended) in dimethylformamide to 10 mg./ml. and diluted with brain heart broth to 1 mg./ml. Two-fold serial dilutions were made with broth starting with 1 mg./ml. with final volumes of 0.1 ml. per dilution. Overnight bacterial cultures were diluted 1:20,000 with brain heart and 0.1 ml. of diluted culture was added to each dilution of antibiotic (final total volume was 0.2 ml.). This was all done in plastic microtest plates (Microtest II Tissue Culture Plate, Bioquest). The plates were incubated at 37° for 16-18 hours and zones of inhibition were recorded.

[6] = tested on: M. avium; test: M. avium growth inhibition; type: cell-based
Protocol: as §1

[7] = tested on: E. coli; test: E. coli growth inhibition; type: cell-based
Protocol: as §1

[8] = tested on: S. schottmuelleri; test: S. schottmuelleri growth inhibition; type: cell-based
Protocol: as §1

[9] = tested on: P. oxalicum; test: P. oxalicum growth inhibition; type: cell-based
Protocol: as §1

[10] = tested on: K. pneumoniae; test: K. pneumoniae growth inhibition; type: cell-based
Protocol: as §1

[11] = tested on: P. vulgaris; test: P. vulgaris growth inhibition; type: cell-based
Protocol: as §1

[12] = tested on: S. pasteurianum; test: S. pasteurianum growth inhibition; type: cell-based
Protocol: as §1

[13] = tested on: B. cereus; test: B. cereus growth inhibition; type: cell-based
Protocol: as §1

[14] = tested on: Reverse Transcriptase; test: Reverse transcriptase (RNA-directed DNA polymerase) inhibition; type: biochemical; set-up: concentration or dose not given beside the values
Source text: as §2
The assay and work-up conditions for reverse transcriptase analysis were essentially those described by Brockman, et al., (Nature, 230, 249, (1971)), except for eliminating the phosphate from the washing solution (10 percent trichloroacetic acid).

E.Coli RNA Polymerase, sequence (P0A8V2 whole entry): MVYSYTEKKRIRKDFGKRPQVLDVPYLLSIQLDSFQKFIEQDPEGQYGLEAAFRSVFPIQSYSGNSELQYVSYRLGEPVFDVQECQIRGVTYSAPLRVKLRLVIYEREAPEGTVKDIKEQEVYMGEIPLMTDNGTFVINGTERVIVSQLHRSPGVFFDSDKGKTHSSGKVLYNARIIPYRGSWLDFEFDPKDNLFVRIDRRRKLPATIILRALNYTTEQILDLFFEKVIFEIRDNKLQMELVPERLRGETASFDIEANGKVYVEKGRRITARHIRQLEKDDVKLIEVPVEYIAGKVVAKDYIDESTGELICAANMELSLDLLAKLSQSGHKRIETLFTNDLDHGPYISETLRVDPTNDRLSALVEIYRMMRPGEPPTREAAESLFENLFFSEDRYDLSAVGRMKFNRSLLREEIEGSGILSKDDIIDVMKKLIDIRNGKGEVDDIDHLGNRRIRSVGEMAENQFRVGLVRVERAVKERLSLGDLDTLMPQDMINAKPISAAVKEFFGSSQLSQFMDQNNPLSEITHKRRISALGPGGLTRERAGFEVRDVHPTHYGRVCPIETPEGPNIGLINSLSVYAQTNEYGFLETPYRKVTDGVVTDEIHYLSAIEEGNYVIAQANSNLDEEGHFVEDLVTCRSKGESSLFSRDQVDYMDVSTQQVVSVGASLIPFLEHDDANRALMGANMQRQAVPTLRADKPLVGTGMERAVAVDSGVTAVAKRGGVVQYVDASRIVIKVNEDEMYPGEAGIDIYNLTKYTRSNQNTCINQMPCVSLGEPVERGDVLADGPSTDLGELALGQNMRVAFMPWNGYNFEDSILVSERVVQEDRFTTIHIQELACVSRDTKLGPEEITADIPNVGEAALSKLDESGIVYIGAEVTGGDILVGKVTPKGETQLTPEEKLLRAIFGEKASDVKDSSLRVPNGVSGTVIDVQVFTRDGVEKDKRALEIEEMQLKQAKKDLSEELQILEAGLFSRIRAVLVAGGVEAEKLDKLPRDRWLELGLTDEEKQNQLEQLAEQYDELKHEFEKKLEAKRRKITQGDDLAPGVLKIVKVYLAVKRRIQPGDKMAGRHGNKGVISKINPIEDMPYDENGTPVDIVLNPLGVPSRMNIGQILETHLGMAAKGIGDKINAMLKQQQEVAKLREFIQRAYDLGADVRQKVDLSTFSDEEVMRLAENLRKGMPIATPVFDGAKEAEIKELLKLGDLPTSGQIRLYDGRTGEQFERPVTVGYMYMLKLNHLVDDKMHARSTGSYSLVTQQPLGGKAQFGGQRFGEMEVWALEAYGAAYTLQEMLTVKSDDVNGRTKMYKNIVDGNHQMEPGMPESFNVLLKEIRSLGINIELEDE
E.Coli RNA Polymerase, sequence (P0A8T7 whole entry partner): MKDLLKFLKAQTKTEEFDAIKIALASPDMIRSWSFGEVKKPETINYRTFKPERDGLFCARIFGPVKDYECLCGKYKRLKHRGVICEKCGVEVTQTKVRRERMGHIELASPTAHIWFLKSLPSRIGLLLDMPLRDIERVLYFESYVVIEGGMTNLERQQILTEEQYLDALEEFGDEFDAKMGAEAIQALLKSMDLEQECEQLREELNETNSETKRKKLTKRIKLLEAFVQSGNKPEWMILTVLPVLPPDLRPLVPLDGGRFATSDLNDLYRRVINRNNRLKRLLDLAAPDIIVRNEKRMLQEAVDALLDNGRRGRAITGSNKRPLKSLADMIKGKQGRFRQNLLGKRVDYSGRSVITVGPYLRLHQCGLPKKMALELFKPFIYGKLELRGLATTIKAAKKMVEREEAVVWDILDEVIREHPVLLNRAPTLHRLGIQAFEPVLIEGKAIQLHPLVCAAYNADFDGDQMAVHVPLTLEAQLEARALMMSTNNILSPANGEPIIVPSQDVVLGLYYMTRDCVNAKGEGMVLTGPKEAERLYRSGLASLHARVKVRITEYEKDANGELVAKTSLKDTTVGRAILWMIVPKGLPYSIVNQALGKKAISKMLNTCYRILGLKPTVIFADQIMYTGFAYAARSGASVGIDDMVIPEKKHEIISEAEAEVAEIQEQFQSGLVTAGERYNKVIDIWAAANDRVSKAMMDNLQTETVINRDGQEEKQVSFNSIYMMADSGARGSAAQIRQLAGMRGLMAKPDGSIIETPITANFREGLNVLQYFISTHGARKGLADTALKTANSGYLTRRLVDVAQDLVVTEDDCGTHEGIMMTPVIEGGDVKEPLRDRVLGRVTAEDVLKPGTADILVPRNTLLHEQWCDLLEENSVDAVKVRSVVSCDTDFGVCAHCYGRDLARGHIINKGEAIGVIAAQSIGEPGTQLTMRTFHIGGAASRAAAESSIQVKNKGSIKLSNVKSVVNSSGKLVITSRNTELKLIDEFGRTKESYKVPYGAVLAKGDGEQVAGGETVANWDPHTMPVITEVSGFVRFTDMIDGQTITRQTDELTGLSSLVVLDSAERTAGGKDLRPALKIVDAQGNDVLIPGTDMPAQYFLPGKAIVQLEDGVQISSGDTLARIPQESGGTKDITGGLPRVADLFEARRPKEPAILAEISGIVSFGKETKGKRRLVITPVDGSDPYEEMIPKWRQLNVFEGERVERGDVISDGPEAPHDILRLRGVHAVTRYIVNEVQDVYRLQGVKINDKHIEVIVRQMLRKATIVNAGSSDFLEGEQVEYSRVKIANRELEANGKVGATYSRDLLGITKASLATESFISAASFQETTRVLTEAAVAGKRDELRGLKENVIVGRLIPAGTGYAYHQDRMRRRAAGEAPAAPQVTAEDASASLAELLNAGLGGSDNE
E.Coli RNA Polymerase, sequence (P0A7Z4 whole entry partner): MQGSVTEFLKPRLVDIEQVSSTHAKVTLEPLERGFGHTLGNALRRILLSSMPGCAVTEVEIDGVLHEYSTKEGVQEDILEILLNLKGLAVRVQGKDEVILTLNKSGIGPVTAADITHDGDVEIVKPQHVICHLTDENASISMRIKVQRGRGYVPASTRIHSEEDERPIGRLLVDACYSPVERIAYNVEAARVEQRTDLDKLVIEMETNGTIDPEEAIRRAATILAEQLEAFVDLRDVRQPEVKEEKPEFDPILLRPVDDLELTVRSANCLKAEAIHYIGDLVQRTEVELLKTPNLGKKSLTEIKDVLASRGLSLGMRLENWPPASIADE
E.Coli RNA Polymerase, sequence (P0A800 whole entry partner): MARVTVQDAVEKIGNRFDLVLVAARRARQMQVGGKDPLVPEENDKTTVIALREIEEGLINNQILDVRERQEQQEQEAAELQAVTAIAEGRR

## CC(=O)Oc1c(C)c2c(O)c3c1C1=C(OCOC1=C(C)C3=O)C(C)=CC(C)(O)C(O)C(C)C(O)C1C(=O)OC(C(C)/C=C\C=C(C)C(=O)N2)C(C)C1O (stereo not shown) [Streptovaricin Fc, streptovaricin Fc, reference compound]
[1]
  Zone of Inhibition: 0 mm.
[2]
  Zone of Inhibition: 0 mm.
[3]
  Zone of Inhibition: 0 mm.
[4]; Table III
  E.Coli RNA Polymerase % Inhibition: 0%
[5]
  Zone of Inhibition: 0 mm.
[6]
  Zone of Inhibition: 14 mm.
[7]
  Zone of Inhibition: 0 mm.
[8]
  Zone of Inhibition: 0 mm.
[9]
  Zone of Inhibition: 0 mm.
[10]
  Zone of Inhibition: 0 mm.
[11]
  Zone of Inhibition: 0 mm.
[12]
  Zone of Inhibition: 0 mm.
[13]
  Zone of Inhibition: 0 mm.
[14]; Table II
  Reverse Transcriptase % Inhibition: 68%

## COC(=O)C1C(O)C(C)C(O)C(C)/C=C/C=C(\C)C(=O)Nc2c(C)c(OC(C)=O)c3c(c2O)C(=O)C(C)=C2OCOC(=C23)/C(C)=C\C(C)(O)C(O)C(C)C1O (stereo not shown) [Atropisostreptovaricin C, atropisostreptovaricin C]
[1]
  Zone of Inhibition: 0 mm.
[2]
  Zone of Inhibition: 20 mm.
[3]
  Zone of Inhibition: 14 mm.
[4]; Table III
  E.Coli RNA Polymerase % Inhibition: 50%
[5]
  Zone of Inhibition: 28 mm.
[6]
  Zone of Inhibition: 20 mm.
[7]
  Zone of Inhibition: 0 mm.
[8]
  Zone of Inhibition: 0 mm.
[9]
  Zone of Inhibition: 0 mm.
[10]
  Zone of Inhibition: 0 mm.
[11]
  Zone of Inhibition: 0 mm.
[12]
  Zone of Inhibition: 0 mm.
[13]
  Zone of Inhibition: 9 mm.
[14]; Table II
  Reverse Transcriptase % Inhibition: 70%

## atropisostreptovaricin Fc
[1]
  Zone of Inhibition: 0 mm.
[2]
  Zone of Inhibition: 0 mm.
[3]
  Zone of Inhibition: 0 mm.
[4]; Table III
  E.Coli RNA Polymerase % Inhibition: 0%
[5]
  Zone of Inhibition: 0 mm.
[6]
  Zone of Inhibition: 0 mm.
[7]
  Zone of Inhibition: 0 mm.
[8]
  Zone of Inhibition: 0 mm.
[9]
  Zone of Inhibition: 0 mm.
[10]
  Zone of Inhibition: 0 mm.
[11]
  Zone of Inhibition: 0 mm.
[12]
  Zone of Inhibition: 0 mm.
[13]
  Zone of Inhibition: 0 mm.
[14]; Table II
  Reverse Transcriptase % Inhibition: 54%

## atropisostreptovaricin C triacetate cyclic bromobenzeneboronate [Atropisostreptovaricin C Triacetate Cyclic p-Bromobenzeneboronate]
[4]; Table IIIA
  E.Coli RNA Polymerase % Inhibition: 46%
[14]; Table IIA
  Reverse Transcriptase % Inhibition: 66%

## COC(=O)[C@@H]1[C@H](O)[C@H](C)[C@H](O)[C@H](C)/C=C\C=C(/C)C(=O)Nc2c(C)c(OC(C)=O)c3c(c2O)C(=O)C(C)=C2OCOC(=C23)/C(C)=C/[C@@](C)(O)[C@H](O)[C@@H](C)[C@H]1O [Streptovaricin C, streptovaricin C, reference compound]
[2]
  Zone of Inhibition: 26 mm.
[3]
  Zone of Inhibition: 22 mm.
[4]; Table III
  E.Coli RNA Polymerase % Inhibition: 78%
[5]
  Zone of Inhibition: 33 mm.
[6]
  Zone of Inhibition: 15 mm.
[7]
  Zone of Inhibition: 13 mm.
[8]
  Zone of Inhibition: 10 mm.
[9]
  Zone of Inhibition: 0 mm.
[10]
  Zone of Inhibition: 21 mm.
[11]
  Zone of Inhibition: 8 mm.
[14]; Table II
  Reverse Transcriptase % Inhibition: 31-53%

## atropisostreptovaricin C triacetate cyclic benzeneboronate
[4]; Table IIIA
  E.Coli RNA Polymerase % Inhibition: 23%
[14]; Table IIA
  Reverse Transcriptase % Inhibition: 77%

## streptovaricin C triacetate cyclic bromobenzeneboronate [reference compound]
[4]; Table IIIA
  E.Coli RNA Polymerase % Inhibition: 20%
[14]; Table IIA
  Reverse Transcriptase % Inhibition: 57%

## streptovaricin C triacetate cyclic benzeneboronate [reference compound]
[4]; Table IIIA
  E.Coli RNA Polymerase % Inhibition: 2%
[14]; Table IIA
  Reverse Transcriptase % Inhibition: 44%
